Measurements as given in patent publication US20050124562A1, “Bis-quinazoline compounds for the treatment of bacterial infections” (priority 2003, published 2005).
≈ marks a conversion by molar mass, not a printed value. Where two headings read alike, the source gives them in different places.

Tests used:
[1] = tested on: reconstituted bacterial DNA polymerase holoenzymes from E. coli, Y. pestis and S. pyogenes; format: biochemical
[2] = tested on: S. aureus, E. faecalis, S. pyogenes and S. pneumoniae; assay: Broth microdilution MIC (NCCLS), gram-positive strains; format: cell-based
Method in brief: (§1)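 MICs by broth microdilution per NCCLS M-7 A-6 against ATCC strains, including ORSA and VRE; MBCs determined for selected organisms. Serum effect assessed by repeating MIC tests with human serum present.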

[3] = tested on: clinically important gram-positive pathogens; assay: Whole cell antibacterial (MIC) and bactericidal (MBC) activity; format: cell-based
Description: (§2) Representative bis-quinazolines were tested for antibacterial activity using the […] microdilution method to determine their minimum inhibitory concentrations (MICs). All compounds were tested using standard methods in accordance with NCCLS guidelines (National Committee for Clinical Laboratory Standards. 2003. Methods for dilution antimicrobial susceptibility testing for bacteria that grow aerobically. Approved Standard M-7 A-6, NCCLS, Wayne, Pa.). The bacterial strains used in the susceptibility tests were obtained from the American Type Culture Collection (ATCC) and included resistant phenotypes such as oxacillin-resistant S. aureus (ORSA) and vancomycin-resistant enterococci (VRE). The minimum bactericidal concentrations (MBCs) were determined for selected organisms. The effect of protein binding on the antibacterial activity of representative bis-quinazolines were determined by conducting MIC tests in the presence of human serum.

[4] = tested on: clinically important bacterial pathogens; assay: MIC tests in the presence of human serum; format: cell-based; conditions: 50% human serum
Description: as §2

[5] = Single dose toxicity study in the mouse; format: in vivo; conditions: single dose IP, 2.5 to 25 mg/kg, female Swiss-Webster mice, monitored one week
Description: A single dose toxicity study was conducted in the mouse prior to evaluating the compound for in vivo efficacy. 2-(6-Methoxy-4-methyl-quinazolin-2-ylamino)-3H-quinazolin-4-ol was prepared in a vehicle consisting of 10% DMSO, 10% ethanol and 80% saline that contained 3% β-cyclodextrin. The compound was administered as a single dose to the peritoneal cavity of female Swiss-Webster mice at the six concentrations (2.5, 5, 10, 15, 20 and 25 mg/kg) proposed for evaluation in the efficacy study. The mice were monitored for toxicity for one week following compound administration.

S. aureus ATCC 29213 = assay: S. aureus murine intra-abdominal sepsis model; format: in vivo, mice; conditions: 25 mg/kg IP one hour post infection, MLD of S. aureus IP
Description: Typically, the model involves inoculating the intra-peritoneal cavity of the mouse with the minimum lethal dose (MLD) of the test organism. The test antimicrobial agent can be administered by any route (e.g. intravenously, sub-cutaneously, oral, intraperitoneal). Early stage compounds are evaluated following intraperitoneal administration since this is considered to be relevant to systemic treatment since most of the compound will be absorbed into the bloodstream. The compound is then monitored for its ability to protect the mouse from a lethal infection with the test organism in a concentration-dependent manner. At the same time the model provides early data on the potential toxicity of a new compound.
The S. aureus murine intra-abdominal sepsis model was used to evaluate the in vivo efficacy of 2-(6-Methoxy-4-methyl-quinazolin-2-ylamino)-3H-quinazolin-4-ol. […] The animals were then monitored at frequent intervals and the numbers of mice surviving in the different treatment groups was scored and recorded in an attempt to determine the protective dose (PD50). Levofloxacin was evaluated as a positive control (0.875, 1.75, 3.125, 6.25, 12.5 and 25 mg/kg). Vehicle only and saline controls were also evaluated.

M. catarrhalis = assay: Broth microdilution MIC (NCCLS), M. catarrhalis; format: cell-based; conditions: Moraxella catarrhalis, read-out: MIC range
Description: as §2

H. influenzae = assay: Broth microdilution MIC (NCCLS), H. influenzae; format: cell-based; conditions: Haemophilus influenzae; some strains of H. influenzae
Description: as §2

[6] = tested on: efflux mutants of E. coli; assay: Broth microdilution MIC (NCCLS), E. coli efflux mutants; format: cell-based; conditions: Escherichia coli, read-out: MICs
Description: as §2

[7] = tested on: efflux mutants of P. aeruginosa; assay: Broth microdilution MIC (NCCLS), P. aeruginosa efflux mutants; format: cell-based; conditions: Pseudomonas aeruginosa, read-out: MICs
Method in brief: as §1

[8] = range against some strains of S. aureus, E. faecalis, S. pyogenes and S. pneumoniae, read-out: MIC

Row | SMILES | biochemical activity against reconstituted DNA polymerase holoenzymes [1] | MIC [2] [mg/L] | whole cell antibacterial and bactericidal activity [3] | antibacterial activity in the presence of human serum [4] | tolerability after single dose ([5]; listed as 2-(6-Methoxy-4-methyl-quinazolin-2-ylamino)-3H-quinazolin-4-ol) | tolerability after single dose ([5]; listed as 2-(6-Methoxy-4-methyl-quinazolin-2-ylamino)-3H-quinazolin-4-one) | mice protected from lethal S. aureus infection (S. aureus ATCC 29213) [%] | MIC [2, 8] [mg/L] | MIC (M. catarrhalis; some strains of M. catarrhalis) [mg/L] | MIC (H. influenzae) [mg/L] | MIC [6] [mg/L] | MIC [7] [mg/L] | MIC (M. catarrhalis) [mg/L]
1 | COc1ccc2nc(Nc3nc(O)c4ccccc4n3)nc(C)c2c1 [Example 9, 2-(6-Methoxy-4-methyl-quinazolin-2-ylamino)-quinazolin-4-ol] | demonstrated biochemical activity | 0.06 to 16 (≈ 0.18 to 48 µM) | potent whole cell antibacterial and bactericidal activity | activity is evident | All mice tolerated the compound | well tolerated | 50 | – | – | – | – | – | –
2 | COc1cc2nc(Nc3nc(O)c4cc(OCCN(CCO)CCO)ccc4n3)nc(C)c2cc1OC.O=C(O)C(F)(F)F [Example 158, 6-{2-[Bis-(2-hydroxy-ethyl)-amino]-ethoxy}-2-(6,7-dimethoxy-4-methyl-quinazolin-2-ylamino)-quinazolin-4-ol trifluoroacetate salt] | – | – | – | – | – | – | – | 0.06 to 16 | 2 to 64 | 16 to 32 | 16 to 64 | 64 | –
3 | CCN(CCO)CCOc1ccc2nc(Nc3nc(C)c4cc(OC)c(OC)cc4n3)nc(O)c2c1.O=C(O)C(F)(F)F [Example 159, 2-(6,7-Dimethoxy-4-methyl-quinazolin-2-ylamino)-6-{2-[ethyl-(2-hydroxy-ethyl)-amino]-ethoxy}-quinazolin-4-ol trifluoroacetate salt] | – | – | – | – | – | – | – | 0.06 to 16 | 2 to 64 | 16 to 32 | 16 to 64 | 64 | –
4 | COc1cc(OC)c2nc(Nc3nc(O)c4cc(OCCN5CCC(O)C5)ccc4n3)nc(C)c2c1.O=C(O)C(F)(F)F (centres unmarked) [Example 160, 2-(6,8-Dimethoxy-4-methyl-quinazolin-2-ylamino)-6-[2-(3-hydroxy-pyrrolidin-1-yl)-ethoxy]-quinazolin-4-ol trifluoroacetate salt] | – | – | – | – | – | – | – | 0.06 to 16 | 2 to 64 | 16 to 32 | 16 to 64 | 64 | –
5 | COc1cc2nc(Nc3nc(O)c4cc(OCCNCCO)ccc4n3)nc(C)c2cc1OC.O=C(O)C(F)(F)F [Example 161, 2-(6,7-Dimethoxy-4-methyl-quinazolin-2-ylamino)-6-[2-(2-hydroxy-ethylamino)-ethoxy]-quinazolin-4-ol trifluoroacetate salt] | – | – | – | – | – | – | – | 0.06 to 16 | 2 to 64 | 16 to 32 | 16 to 64 | 64 | –
6 | COc1cc2nc(Nc3nc(O)c4cc(OCCN5CCC(N)C5)ccc4n3)nc(C)c2cc1OC (centres unmarked) [Example 163, 6-[2-(3-Amino-pyrrolidin-1-yl)-ethoxy]-2-(6,7-dimethoxy-4-methyl-quinazolin-2-ylamino)-quinazolin-4-ol] | – | 0.06 to 16 (≈ 0.122 to 32.5 µM) | – | – | – | – | – | – | – | 16 to 32 (≈ 32.5 to 65.1 µM) | 16 to 64 (≈ 32.5 to 130 µM) | 64 (≈ 130 µM) | 2 to 64 (≈ 4.07 to 130 µM)
7 | COc1cc2nc(Nc3nc(O)c4cc(OCCN5CCCC5CO)ccc4n3)nc(C)c2cc1OC.O=C(O)C(F)(F)F (centres unmarked) [Example 164, 2-(6,7-Dimethoxy-4-methyl-quinazolin-2-ylamino)-6-[2-(2-hydroxymethyl-pyrrolidin-1-yl)-ethoxy]-quinazolin-4-ol trifluoroacetate salt] | – | – | – | – | – | – | – | 0.06 to 16 | 2 to 64 | 16 to 32 | 16 to 64 | 64 | –
8 | COc1cc2nc(Nc3nc(O)c4cc(OCCNC(CO)CO)ccc4n3)nc(C)c2cc1OC.O=C(O)C(F)(F)F [Example 165, 2-{2[-2-(6,7-Dimethoxy-4-methyl-quinazolin-2-ylamino)-4-hydroxy-quinazolin-6-yloxy]-ethylamino}-propane-1,3-diol trifluoroacetate salt] | – | – | – | – | – | – | – | 0.06 to 16 | 2 to 64 | 16 to 32 | 16 to 64 | 64 | –
9 | COc1cc(OC)c2nc(Nc3nc(O)c4cc(OCCN5CCCC5)ccc4n3)nc(C)c2c1.O=C(O)C(F)(F)F [Example 166, 2-(6,8-Dimethoxy-4-methyl-quinazolin-2-ylamino)-6-(2-pyrrolidin-1-yl-ethoxy)-quinazolin-4-ol trifluoroacetate salt] | – | – | – | – | – | – | – | 0.06 to 16 | 2 to 64 | 16 to 32 | 16 to 64 | 64 | –
10 | COc1cc2nc(Nc3nc(O)c4cc(OCCNC(C)CO)ccc4n3)nc(C)c2cc1OC.O=C(O)C(F)(F)F (centres unmarked) [Example 169, 2-(6,7-Dimethoxy-4-methyl-quinazolin-2-ylamino)-6-[2-(2-hydroxy-1-methyl-ethylamino)-ethoxy]-quinazolin-4-ol trifluoroacetate salt] | – | – | – | – | – | – | – | 0.06 to 16 | 2 to 64 | 16 to 32 | 16 to 64 | 64 | –
11 | COc1cc2nc(Nc3nc(O)c4cc(OCCN5CCOC(CO)C5)ccc4n3)nc(C)c2cc1OC.O=C(O)C(F)(F)F (centres unmarked) [Example 170, 2-(6,7-Dimethoxy-4-methyl-quinazolin-2-ylamino)-6-[2-(2-hydroxymethyl-morpholin-4-yl)-ethoxy]-quinazolin-4-ol trifluoroacetate salt] | – | – | – | – | – | – | – | 0.06 to 16 | 2 to 64 | 16 to 32 | 16 to 64 | 64 | –
12 | CCN(CCOc1ccc2nc(Nc3nc(C)c4cc(OC)c(OC)cc4n3)nc(O)c2c1)CCN(C)C.O=C(O)C(F)(F)F [Example 171, 2-(6,7-Dimethoxy-4-methyl-quinazolin-2-ylamino)-6-{2[(2-dimethylamino-ethyl)-ethyl-amino]-ethoxy}-quinazolin-4-ol trifluoroacetate salt] | – | – | – | – | – | – | – | 0.06 to 16 | 2 to 64 | 16 to 32 | 16 to 64 | 64 | –
